Laboratory results published in ChEMBL document CHEMBL1201862, “PubChem BioAssay data set” (2004).
The source made the active and inactive calls.

Columns and labels:
[1] = biological target: DNA dC->dU-editing enzyme APOBEC-3A (Homo sapiens, UniProt P31941); test: APOBEC3A DNA deaminase inhibitors, dose response, biochemical (AID 504722); format: functional
[2] = biological target: DNA dC->dU-editing enzyme APOBEC-3G (Homo sapiens, UniProt Q9HC16); test: Dose Response confirmation of small molecule APOBEC3G DNA Deaminase Inhibitors via a fluorescence-based single-stranded DNA deaminase assay. [Related pubchem assays (depositor defined):AID493012, AID493028]; format: functional
[3] = biological target: Cytochrome P450 2D6 (Homo sapiens, UniProt P10635);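 also: CYP2D6 member of a cytochrome P450 panel assay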
[4] = biological target: T1, Cytochrome P450 3A4 (Homo sapiens, UniProt P08684);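 also: CYP3A4 tested as one member of a cytochrome P450 panel screen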
[5] = tested on: BJ; test: cytotoxicity toward BJ-TERT fibroblasts, dose response, cell-based, RAS-independent, luminescence (AID 1933); format: functional; conditions: Homo sapiens
[6] = tested on: BJ; test: cells; format: functional, cell-based; conditions: Homo sapiens
[7] = tested on: BJ; test: cytotoxicity toward BJ-TERT-LT-ST fibroblasts, dose response, cell-based, RAS-independent, luminescence (AID 1935); format: functional; conditions: Homo sapiens;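 also: BJ fibroblasts immortalized with TERT plus LT and ST oncogenes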
[8] = cytotoxicity toward DRD oncogenic fibroblasts, dose response, cell-based, non-viral oncogenic, luminescence (AID 1934); format: functional; conditions: Homo sapiens
[9] = tested on: Vero; test: cells; format: functional, cell-based; conditions: Chlorocebus sabaeus
[10] = tested on: Vero; test: cells; format: functional; conditions: Chlorocebus sabaeus
[11] = biological target: T2, E3 ubiquitin-protein ligase XIAP (Homo sapiens, UniProt P98170); test: Counter Screen using XIAP-Bir3 for Chemical Antagonists of Bir1/2 domains of IAP-family anti-apoptotic proteins. [Related pubchem assays (depositor defined):AID1018, AID1449, AID1514, AID1638, AID1749, AID1750, AID488957, AID488963]
[12] = biological target: T2, E3 ubiquitin-protein ligase XIAP; test: XIAP antagonists, biochemical, IAP family, fluorescence polarization (AID 1018); format: functional
[13] = biological target: T3, Corticotropin-releasing factor receptor 2/Corticotropin-releasing factor-binding protein (Homo sapiens, UniProt P24387+Q13324); test: activators of CRF receptor 2 with binding protein – uHTS hits, confirmation (AID 602473); format: functional; conditions: read-out: EC50_Mean
T3 sequence (Q13324 whole entry): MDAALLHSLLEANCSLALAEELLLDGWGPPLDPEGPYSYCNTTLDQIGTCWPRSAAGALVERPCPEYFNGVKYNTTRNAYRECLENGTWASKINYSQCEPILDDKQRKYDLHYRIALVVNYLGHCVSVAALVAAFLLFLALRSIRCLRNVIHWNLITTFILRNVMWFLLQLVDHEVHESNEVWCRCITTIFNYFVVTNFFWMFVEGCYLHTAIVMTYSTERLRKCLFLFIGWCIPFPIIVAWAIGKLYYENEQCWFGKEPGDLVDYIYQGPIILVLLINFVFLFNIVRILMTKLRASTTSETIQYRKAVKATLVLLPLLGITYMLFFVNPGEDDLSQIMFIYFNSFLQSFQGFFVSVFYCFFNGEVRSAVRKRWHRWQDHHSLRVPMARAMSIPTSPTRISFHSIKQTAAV
T3 sequence (P24387 whole entry): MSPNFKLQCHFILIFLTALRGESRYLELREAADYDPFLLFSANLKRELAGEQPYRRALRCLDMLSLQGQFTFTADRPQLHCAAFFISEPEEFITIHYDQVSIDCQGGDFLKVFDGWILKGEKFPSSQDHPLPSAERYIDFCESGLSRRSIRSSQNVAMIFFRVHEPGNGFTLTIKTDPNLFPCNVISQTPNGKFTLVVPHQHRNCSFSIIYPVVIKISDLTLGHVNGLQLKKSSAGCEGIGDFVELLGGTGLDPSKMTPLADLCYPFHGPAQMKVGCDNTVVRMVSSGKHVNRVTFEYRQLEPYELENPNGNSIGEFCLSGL

[14] = biological target: T4, RNA-binding protein pos-1 (Caenorhabditis elegans, UniProt G5EF15); test: inhibitors of POS-1/mex-3 RNA binding, dose response, biochemical, fluorescence polarization (AID 1964);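 also: purified POS-1 fused to maltose binding protein made in E. coli; potency of compounds blocking POS-1 binding to fluorescent RNA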
T4 sequence (G5EF15 whole entry): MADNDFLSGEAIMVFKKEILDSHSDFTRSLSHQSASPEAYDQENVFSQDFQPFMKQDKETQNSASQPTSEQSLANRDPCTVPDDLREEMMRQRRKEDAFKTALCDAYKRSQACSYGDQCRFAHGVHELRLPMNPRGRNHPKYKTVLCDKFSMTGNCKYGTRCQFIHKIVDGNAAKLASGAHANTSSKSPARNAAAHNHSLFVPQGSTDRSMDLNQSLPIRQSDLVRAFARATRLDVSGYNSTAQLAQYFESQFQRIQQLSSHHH

[15] = biological target: T5, Zinc finger protein mex-5 (Caenorhabditis elegans, UniProt Q9XUB2); test: MEX-5/TCR-2 RNA interaction inhibitors, dose response, biochemical, C. elegans, fluorescence polarization (AID 1960)
T5 sequence (Q9XUB2 whole entry): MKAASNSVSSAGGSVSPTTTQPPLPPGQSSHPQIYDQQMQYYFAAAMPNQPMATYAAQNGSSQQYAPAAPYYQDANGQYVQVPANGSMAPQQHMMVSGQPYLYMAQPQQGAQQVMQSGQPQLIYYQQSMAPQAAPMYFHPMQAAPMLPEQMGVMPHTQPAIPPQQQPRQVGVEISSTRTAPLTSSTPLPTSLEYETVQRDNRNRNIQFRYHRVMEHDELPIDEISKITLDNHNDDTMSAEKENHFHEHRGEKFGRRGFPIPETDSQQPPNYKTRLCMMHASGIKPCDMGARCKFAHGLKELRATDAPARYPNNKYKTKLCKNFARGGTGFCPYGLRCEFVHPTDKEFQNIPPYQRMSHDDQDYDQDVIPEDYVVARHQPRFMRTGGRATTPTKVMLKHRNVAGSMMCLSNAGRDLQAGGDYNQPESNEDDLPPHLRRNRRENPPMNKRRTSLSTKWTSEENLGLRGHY

[16] = biological target: Eukaryotic translation initiation factor 4H (Homo sapiens, UniProt Q15056); test: eIF4H inhibition in translation initiation, SAR follow-up (AID 435011); format: functional
[17] = biological target: Polyadenylate-binding protein 1 (Homo sapiens, UniProt P11940); test: PABP inhibition in translation initiation, SAR follow-up (AID 435018); format: functional
[18] = HEp-2 cell cytotoxicity, dose response, cytotoxicity control for RSV inhibitor project, HTS (AID 2410); format: functional; conditions: human respiratory syncytial virus
[19] = tested on: HEK293; test: inhibitors of LMP1-driven NF-kB reporter, dose response, cell-based, HEK293, luciferase, cherry-pick (AID 588343); format: functional; conditions: Homo sapiens
[20] = cells
[21] = biological target: T6, Calpain-2 catalytic subunit (Sus scrofa, UniProt P43367); test: pig calpain II inhibitor potency, dose response, biochemical, fluorogenic peptide substrate (AID 1420); format: functional
T6 sequence (P43367 whole entry): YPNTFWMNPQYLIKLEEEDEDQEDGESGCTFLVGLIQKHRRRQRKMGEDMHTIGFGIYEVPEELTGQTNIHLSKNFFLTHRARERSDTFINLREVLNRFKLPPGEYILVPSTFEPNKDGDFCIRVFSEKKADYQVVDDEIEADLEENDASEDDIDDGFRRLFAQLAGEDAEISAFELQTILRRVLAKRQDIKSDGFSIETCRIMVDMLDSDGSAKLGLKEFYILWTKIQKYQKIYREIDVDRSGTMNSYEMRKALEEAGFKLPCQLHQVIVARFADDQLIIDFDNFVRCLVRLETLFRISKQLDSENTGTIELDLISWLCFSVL

[22] = biological target: T7, Tyrosine-protein phosphatase non-receptor type 7 (Homo sapiens, UniProt P35236); test: HePTP (PTPN7) phosphatase inhibitor potency, SAR follow-up, biochemical, set 2 (AID 449736); format: functional
T7 sequence (P35236 whole entry): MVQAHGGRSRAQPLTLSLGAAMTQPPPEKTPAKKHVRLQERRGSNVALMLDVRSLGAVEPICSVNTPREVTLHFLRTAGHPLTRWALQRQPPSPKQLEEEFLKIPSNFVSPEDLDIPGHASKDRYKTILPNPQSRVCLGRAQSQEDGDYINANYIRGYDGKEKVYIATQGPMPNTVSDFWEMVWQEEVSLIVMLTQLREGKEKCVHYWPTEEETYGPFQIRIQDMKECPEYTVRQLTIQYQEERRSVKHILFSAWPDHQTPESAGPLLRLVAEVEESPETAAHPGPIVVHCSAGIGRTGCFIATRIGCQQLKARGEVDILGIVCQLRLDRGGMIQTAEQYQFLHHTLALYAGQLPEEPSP

[23] = biological target: Cytochrome P450 2C19 (Homo sapiens, UniProt P33261); test: Cytochrome panel assay with activity outcomes. Panel member name: p450-cyp2c19 Compounds with AC50 equal or less than 10 uM are considered active; format: functional
[24] = biological target: T1, Cytochrome P450 3A4; remark: listed apart in the source
[25] = biological target: Voltage-dependent T-type calcium channel subunit alpha-1H (Homo sapiens, UniProt O95180); format: functional;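 also: channel activity triggered by adding a high calcium stimulation buffer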
[26] = biological target: T8, Cytochrome P450 1A2 (Homo sapiens, UniProt P05177);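 also: PubChem cytochrome P450 panel assay, CYP1A2 panel member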
T8 sequence (P05177 whole entry): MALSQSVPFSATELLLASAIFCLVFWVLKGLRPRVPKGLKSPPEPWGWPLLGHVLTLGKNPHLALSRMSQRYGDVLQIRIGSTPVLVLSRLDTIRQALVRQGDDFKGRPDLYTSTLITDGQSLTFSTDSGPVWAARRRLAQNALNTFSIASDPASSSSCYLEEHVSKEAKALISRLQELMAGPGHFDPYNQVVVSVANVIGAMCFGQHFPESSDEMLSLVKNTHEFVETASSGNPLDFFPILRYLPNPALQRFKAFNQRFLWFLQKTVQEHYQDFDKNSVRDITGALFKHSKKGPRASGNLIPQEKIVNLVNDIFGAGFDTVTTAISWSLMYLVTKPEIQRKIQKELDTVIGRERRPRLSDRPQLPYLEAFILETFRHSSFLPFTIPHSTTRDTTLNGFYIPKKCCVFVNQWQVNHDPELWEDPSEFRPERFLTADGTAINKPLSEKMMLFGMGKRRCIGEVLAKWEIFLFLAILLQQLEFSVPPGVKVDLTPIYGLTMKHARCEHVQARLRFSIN

[27] = biological target: Cytochrome P450 2C9 (Homo sapiens, UniProt P11712)

T2 sequence (P98170 whole entry): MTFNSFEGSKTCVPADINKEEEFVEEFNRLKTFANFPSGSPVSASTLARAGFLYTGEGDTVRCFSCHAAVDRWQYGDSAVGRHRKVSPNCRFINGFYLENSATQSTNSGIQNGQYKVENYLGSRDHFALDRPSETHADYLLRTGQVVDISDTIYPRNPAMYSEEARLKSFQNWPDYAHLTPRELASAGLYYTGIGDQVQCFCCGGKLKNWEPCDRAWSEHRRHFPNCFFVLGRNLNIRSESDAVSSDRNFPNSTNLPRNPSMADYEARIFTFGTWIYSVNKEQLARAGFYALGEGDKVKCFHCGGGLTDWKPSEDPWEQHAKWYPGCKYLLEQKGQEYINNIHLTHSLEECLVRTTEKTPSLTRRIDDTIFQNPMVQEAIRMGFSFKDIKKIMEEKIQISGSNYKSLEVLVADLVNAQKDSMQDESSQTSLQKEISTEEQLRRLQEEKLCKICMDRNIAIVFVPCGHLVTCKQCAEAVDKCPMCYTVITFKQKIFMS
Sequence of DNA dC->dU-editing enzyme APOBEC-3G (Q9HC16 whole entry): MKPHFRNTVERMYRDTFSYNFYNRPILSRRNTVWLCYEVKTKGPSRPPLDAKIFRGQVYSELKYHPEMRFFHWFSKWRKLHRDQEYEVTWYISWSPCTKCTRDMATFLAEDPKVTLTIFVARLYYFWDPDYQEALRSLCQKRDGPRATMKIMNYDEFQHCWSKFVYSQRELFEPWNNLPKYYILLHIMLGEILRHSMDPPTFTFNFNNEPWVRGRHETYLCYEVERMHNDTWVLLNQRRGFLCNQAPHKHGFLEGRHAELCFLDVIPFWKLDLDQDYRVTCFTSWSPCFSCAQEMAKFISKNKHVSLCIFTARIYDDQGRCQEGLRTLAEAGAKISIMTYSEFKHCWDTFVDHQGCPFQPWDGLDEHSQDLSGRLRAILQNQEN
Sequence of DNA dC->dU-editing enzyme APOBEC-3A (P31941 whole entry): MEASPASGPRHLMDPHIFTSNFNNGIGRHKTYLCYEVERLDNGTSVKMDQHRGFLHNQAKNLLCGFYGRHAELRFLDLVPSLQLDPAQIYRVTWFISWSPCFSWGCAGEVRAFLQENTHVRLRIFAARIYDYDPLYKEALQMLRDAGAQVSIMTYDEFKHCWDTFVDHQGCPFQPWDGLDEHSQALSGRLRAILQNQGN
T1 sequence (P08684 whole entry): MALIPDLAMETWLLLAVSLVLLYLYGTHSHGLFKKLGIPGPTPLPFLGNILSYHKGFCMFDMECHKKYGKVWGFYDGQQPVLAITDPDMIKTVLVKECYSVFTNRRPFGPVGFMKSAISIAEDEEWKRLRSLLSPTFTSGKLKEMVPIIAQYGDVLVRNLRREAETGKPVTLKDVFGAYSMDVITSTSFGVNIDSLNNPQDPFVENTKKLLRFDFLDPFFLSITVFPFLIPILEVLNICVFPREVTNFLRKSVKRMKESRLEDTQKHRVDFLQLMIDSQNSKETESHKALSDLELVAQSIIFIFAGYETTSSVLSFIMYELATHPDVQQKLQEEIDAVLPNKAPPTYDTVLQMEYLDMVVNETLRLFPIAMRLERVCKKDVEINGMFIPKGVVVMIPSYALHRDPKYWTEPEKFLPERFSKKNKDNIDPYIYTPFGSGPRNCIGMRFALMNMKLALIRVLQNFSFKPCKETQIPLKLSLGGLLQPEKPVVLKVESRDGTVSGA
Sequence of Polyadenylate-binding protein 1 (P11940 whole entry): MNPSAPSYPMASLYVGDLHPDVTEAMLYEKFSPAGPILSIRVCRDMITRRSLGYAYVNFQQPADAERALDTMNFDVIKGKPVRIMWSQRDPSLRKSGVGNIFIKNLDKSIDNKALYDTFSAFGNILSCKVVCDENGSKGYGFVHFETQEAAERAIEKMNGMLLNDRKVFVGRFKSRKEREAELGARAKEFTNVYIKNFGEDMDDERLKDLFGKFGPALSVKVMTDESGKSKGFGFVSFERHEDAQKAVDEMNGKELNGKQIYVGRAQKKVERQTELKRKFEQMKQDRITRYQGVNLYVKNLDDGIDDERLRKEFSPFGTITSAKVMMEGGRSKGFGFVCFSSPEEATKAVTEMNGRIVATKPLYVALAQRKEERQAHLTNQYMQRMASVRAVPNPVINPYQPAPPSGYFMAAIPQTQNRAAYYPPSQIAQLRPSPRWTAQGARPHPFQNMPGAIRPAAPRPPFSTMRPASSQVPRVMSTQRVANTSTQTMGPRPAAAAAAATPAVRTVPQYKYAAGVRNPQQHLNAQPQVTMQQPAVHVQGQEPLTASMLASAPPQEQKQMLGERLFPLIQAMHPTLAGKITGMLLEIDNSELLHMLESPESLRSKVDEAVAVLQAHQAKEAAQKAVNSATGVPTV
Sequence of Voltage-dependent T-type calcium channel subunit alpha-1H (O95180 whole entry): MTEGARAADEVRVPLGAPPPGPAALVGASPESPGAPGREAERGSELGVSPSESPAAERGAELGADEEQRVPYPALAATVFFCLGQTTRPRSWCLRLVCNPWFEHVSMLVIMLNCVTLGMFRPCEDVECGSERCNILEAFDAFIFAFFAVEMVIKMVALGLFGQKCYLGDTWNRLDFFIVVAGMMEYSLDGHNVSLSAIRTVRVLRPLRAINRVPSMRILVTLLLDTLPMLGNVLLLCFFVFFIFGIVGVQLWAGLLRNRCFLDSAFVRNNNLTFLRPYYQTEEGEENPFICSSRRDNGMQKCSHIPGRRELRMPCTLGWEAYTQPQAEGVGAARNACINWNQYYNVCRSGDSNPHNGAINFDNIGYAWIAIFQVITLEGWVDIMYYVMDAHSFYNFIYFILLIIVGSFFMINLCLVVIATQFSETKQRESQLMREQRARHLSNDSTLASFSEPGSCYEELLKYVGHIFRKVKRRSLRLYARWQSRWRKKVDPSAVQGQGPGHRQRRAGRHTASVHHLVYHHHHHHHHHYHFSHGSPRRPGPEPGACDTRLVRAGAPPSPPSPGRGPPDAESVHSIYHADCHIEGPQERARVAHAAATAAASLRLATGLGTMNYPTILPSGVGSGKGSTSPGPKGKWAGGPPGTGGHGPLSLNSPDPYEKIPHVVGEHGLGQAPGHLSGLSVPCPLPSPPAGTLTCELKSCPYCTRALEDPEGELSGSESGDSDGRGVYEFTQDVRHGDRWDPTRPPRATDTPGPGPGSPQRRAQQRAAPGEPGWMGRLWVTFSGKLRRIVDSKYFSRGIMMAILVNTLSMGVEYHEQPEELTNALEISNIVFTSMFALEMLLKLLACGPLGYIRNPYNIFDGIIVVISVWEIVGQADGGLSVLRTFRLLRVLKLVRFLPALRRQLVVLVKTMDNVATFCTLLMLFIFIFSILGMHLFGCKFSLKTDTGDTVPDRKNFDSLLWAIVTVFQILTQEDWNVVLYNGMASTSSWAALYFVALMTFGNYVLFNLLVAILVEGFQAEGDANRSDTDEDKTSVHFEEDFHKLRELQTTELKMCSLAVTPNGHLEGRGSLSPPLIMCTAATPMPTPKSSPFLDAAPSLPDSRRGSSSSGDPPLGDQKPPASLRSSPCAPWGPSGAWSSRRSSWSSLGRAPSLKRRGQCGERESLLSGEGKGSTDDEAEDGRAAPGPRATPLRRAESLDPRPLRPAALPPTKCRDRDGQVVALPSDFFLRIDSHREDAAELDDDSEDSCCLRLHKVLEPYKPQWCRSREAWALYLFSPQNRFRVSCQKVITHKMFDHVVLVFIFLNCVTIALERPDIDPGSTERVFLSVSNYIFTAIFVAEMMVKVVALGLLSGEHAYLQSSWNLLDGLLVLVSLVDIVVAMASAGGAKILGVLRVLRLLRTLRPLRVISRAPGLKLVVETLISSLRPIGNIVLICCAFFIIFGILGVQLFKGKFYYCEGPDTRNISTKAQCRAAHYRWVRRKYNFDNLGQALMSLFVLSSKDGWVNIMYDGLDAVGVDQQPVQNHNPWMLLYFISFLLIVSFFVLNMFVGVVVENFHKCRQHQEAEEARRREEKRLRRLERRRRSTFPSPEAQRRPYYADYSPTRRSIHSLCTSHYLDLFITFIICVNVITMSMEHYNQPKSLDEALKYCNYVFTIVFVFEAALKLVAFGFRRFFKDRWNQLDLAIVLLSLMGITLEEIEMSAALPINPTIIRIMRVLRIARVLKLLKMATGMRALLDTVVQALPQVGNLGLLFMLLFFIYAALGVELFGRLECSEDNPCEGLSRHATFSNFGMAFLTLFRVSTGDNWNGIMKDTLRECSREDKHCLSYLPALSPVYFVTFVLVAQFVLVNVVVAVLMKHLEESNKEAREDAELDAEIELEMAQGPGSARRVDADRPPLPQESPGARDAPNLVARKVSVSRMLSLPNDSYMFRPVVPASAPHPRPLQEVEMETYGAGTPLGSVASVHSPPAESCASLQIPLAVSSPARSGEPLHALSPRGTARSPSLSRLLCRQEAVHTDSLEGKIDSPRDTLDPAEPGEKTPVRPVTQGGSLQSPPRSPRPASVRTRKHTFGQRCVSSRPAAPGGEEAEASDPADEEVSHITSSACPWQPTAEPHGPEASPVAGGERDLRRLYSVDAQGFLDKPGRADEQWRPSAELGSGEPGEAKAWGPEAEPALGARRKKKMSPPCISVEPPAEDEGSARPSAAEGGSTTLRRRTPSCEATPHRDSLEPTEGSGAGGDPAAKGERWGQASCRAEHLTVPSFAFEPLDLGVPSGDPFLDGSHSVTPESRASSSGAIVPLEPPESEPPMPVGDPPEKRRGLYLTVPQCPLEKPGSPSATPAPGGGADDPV

CCCCn1c(S)nnc1-c1ccc([N+](=O)[O-])cc1
IC50 [1]: > 100 µM (inactive)
IC50 [2]: 3.5 µM (active)

Cn1c(=O)n(C)c2cc([N+](=O)[O-])c(N3CCN(C(=O)c4ccccc4Cl)CC3)cc21
AC50 [3]: 0.0355 µM (inconclusive)
AC50 [4]: inconclusive

Cc1ccc(N(Cc2cc(O)nc3ccccc23)C(=O)CCl)cc1
EC50 [5]: 1.19 µM (inconclusive)
EC50 [6]: 8.7 µM (active)
EC50 [7]: 8.14 µM (inconclusive)
EC50 [8]: 4.97 µM (inconclusive)
IC50 [9]: > 25 µM (active)
CC50 [10]: 6.57 µM (active)

CCn1c(CCNC(=O)c2ccc(OC)cc2)nnc1SCc1ccc(Cl)c(Cl)c1
IC50 [11]: > 100 µM (inactive)
IC50 [12]: > 100 µM (not active)
EC50 [13]: > 53 µM (inactive)

C=CCn1c(S)nnc1-c1sc2nc(C)cc(C)c2c1N
IC50 [1]: > 100 µM (inactive)
IC50 [2]: 3.28 µM (active)

CC(C)(C)c1ccc(C(=O)Nc2cccc3ncccc23)cc1
EC50 [14]: 8.65 µM (active)
EC50 [15]: 5.39 µM (active)
IC50 [16]: 1.14 µM (active)
IC50 [17]: 1.32 µM (active)

Clc1ccc(COn2c(-c3ccccc3)nc3ccccc32)cc1
AC50 [4]: inconclusive

C#CCn1c(S(=O)(=O)Cc2ccc(F)cc2)nc(-c2ccccc2)c1-c1ccccc1
CC50 [18]: 3.47 µM (active)
AC50 [19]: 21.7 µM (active)
IC50 [9]: 3.94 µM (active)
CC50 [10]: 22.2 µM (active)
IC50 [20]: 4.97 µM (active)

OCC1(CCc2ccccc2)CCN(Cc2ccc(OC(F)F)cc2)CC1
IC50 [11]: > 100 µM (inactive)
IC50 [12]: > 100 µM (not active)

CCCCSc1nnc2c(n1)OC(C(=O)c1ccccc1)Nc1ccccc1-2 (stereo not given)
IC50 [11]: > 100 µM (inactive)
IC50 [12]: > 50 µM (not active)
IC50 [21]: > 50 µM (not active)

Nc1c(C(=O)N2CCOCC2)sc(=S)n1-c1ccc(F)c(Cl)c1
IC50 [22]: > 100 µM (inactive)

COc1ccccc1N=C1SC(C(=O)Nc2ccccc2)CC(=O)N1C (stereo not given)
IC50 [16]: > 100 µM (inactive)
IC50 [17]: > 100 µM (inactive)

CCOC(=O)N/N=C/c1ccc(Oc2ccccc2)cc1
IC50 [11]: > 100 µM (inactive)
IC50 [12]: > 100 µM (not active)

Cc1nnc(S)n1/N=C/c1ccc(Br)o1
IC50 [1]: > 100 µM (inactive)
IC50 [2]: 6.93 µM (active)
AC50 [23]: inconclusive
AC50 [24]: 25.1 µM (inconclusive)

Sc1nc(-c2ccccc2)cn1/N=C/c1ccncc1
IC50 [1]: > 100 µM (inactive)
IC50 [2]: 2.93 µM (active)

O=c1[nH]c2ccccc2n1CCCN1CCN(C(c2ccccc2)c2ccccc2)CC1 [OXATOMIDE]
EC50 [25]: 5.15 µM (active)
AC50 [26]: 25.1 µM (inconclusive)
AC50 [27]: 7.94 µM (inconclusive)
AC50 [4]: inconclusive
